These are literature values, as cited in patent US20060128997A1, “New method for the preparation of 1,5-bis(4-hydroxy-3-metoxy-phenyl)-penta-1,4-dien-3-one and derivatives with antitumoral properties” (priority 2003, published 2006).

The subject of one series is HT-1080. Conditions: literature values (Banskota, Kimoto); unit not given; cited from earlier work.
In a further series the test system is Colon L5-26. Conditions: literature values (Banskota, Kimoto); unit not given; cited from earlier work.

Turning to `CC(C)=CCc1cc(C=CC(=O)O)cc2c1OC(C)(C)C(O)C2` (centres unmarked) [Compound 1, 3-hydroxy-2,2-dimethyl-8-prenylchromane-6-propenoic acid], the “Cytotoxicity HT-1080” value in the series on HT-1080 was 71.53. Besides, in the series with Colon L5-26, the “Cytotoxicity Colon L5-26” value is 77.07.
Take `CC(C)=CCc1cc(C=CC(=O)O)cc2c1OC(C)(C)C=C2` [Compound 2, 2,2-dimethyl-8-prenyl-2H-1-benzopyranbenzopyrene-6-yl-2-propenoic acid]: the “Cytotoxicity HT-1080” value with HT-1080 is 46.86. The “Cytotoxicity Colon L5-26” value with Colon L5-26 is 50.22.
As for `CC(C)=CCc1cc(C=CC(=O)O)cc(CC=C(C)C)c1O` [Compound 3, 3,5-diprenyl-4-hydroxycinnamic acid], the “Cytotoxicity HT-1080” value in the series on HT-1080 was 45.47. Further, the “Cytotoxicity Colon L5-26” value in the series on Colon L5-26 was 59.32.
On to `CC(C)=CCc1cc(C=CC(=O)O)ccc1OC(=O)CCc1ccccc1` [Compound 4, 4-dihydrocinnamoyloxy-3-prenylcinnamic acid], for which the “Cytotoxicity HT-1080” value in the series with HT-1080 is 25.94. The “Cytotoxicity Colon L5-26” value in the series on Colon L5-26 is 77.90.
